In patent publication US10351827B2, “Method for differentiating induced pluripotent stem cells into renal proximal tubular cell-like cells” (priority 2013, dated 2019):
Read-outs that look alike come from different tables or passages of the source.

Tested on: iPS(Foreskin)-4-derived d8 HPTC-like cells
[1] = 1 μg/ml, overnight (16 h), qPCR, normalized to vehicle control (=1), mean +/- s.d., n=3
[2] = 10 μg/ml, overnight (16 h), qPCR, normalized to vehicle control (=1), mean +/- s.d., n=3
[3] = 100 μg/ml, overnight (16 h), qPCR, normalized to vehicle control (=1), mean +/- s.d., n=3
[4] = 1,000 μg/ml, overnight (16 h), qPCR, normalized to vehicle control (=1), mean +/- s.d., n=3

| Structure (SMILES) | IL6 Expression Levels (human, 16 h, 1 μg/ml) | IL8 Expression Levels (human, 16 h, 1 μg/ml) | IL6 Expression Levels (human, 16 h, 10 μg/ml) | IL8 Expression Levels (human, 16 h, 10 μg/ml) | IL6 Expression Levels (human, 16 h, 100 μg/ml) | IL8 Expression Levels (human, 16 h, 100 μg/ml) | IL6 Expression Levels (human, 16 h, 1000 μg/ml) | IL8 Expression Levels (human, 16 h, 1000 μg/ml) | IL6 Expression Levels [1] | IL8 Expression Levels [1] | IL6 Expression Levels [2] | IL8 Expression Levels [2] | IL6 Expression Levels [3] | IL8 Expression Levels [3] | IL6 Expression Levels [4] | IL8 Expression Levels [4] |
| --- | --- | --- | --- | --- | --- | --- | --- | --- | --- | --- | --- | --- | --- | --- | --- | --- |
| O=c1[nH]cc(F)c(=O)[nH]1 [5-Fluorouracil] | 6.2 ± 0.7 | 7.4 ± 1.4 | 6.4 ± 0.3 | 9.2 ± 1.4 | 9.2 ± 1.2 | 18.3 ± 2.2 | 1.1 ± 0.2 | 5.7 ± 0.5 |  |  |  |  |  |  |  |  |
| C[C@H]1O[C@H](O[C@H]2[C@H](O)[C@@H](O)[C@@H](O[C@H]3[C@H](O)[C@@H](O)C(O)O[C@@H]3CO)O[C@@H]2CO)[C@H](O)[C@@H](O)[C@@H]1N[C@H]1C=C(CO)[C@@H](O)[C@H](O)[C@H]1O (some centres unmarked) [Acarbose] | 1.2 ± 0.1 | 0.5 ± 0.1 | 1.5 ± 0.3 | 0.6 ± 0.2 | 1.3 ± 0.2 | 0.4 ± 0.1 | 1.4 ± 0.4 | 1.6 ± 0.2 |  |  |  |  |  |  |  |  |
| CC(=O)Nc1ccc(O)cc1 [Acetaminophen] | 1.3 ± 0.0 | 0.8 ± 0.3 | 1.2 ± 0.1 | 1.2 ± 0.2 | 1.4 ± 0.2 | 0.5 ± 0.1 | 0.3 ± 0.1 | 0.1 ± 0.0 |  |  |  |  |  |  |  |  |
| COc1cccc2c1cc([N+](=O)[O-])c1c(C(=O)O)cc3c(c12)OCO3 [Aristolochic acid] |  |  |  |  |  |  |  |  | 3.9 ± 0.5 | 5.0 ± 0.8 | 3.3 ± 0.2 | 4.8 ± 0.6 | 7.3 ± 1.6 | 43.5 ± 7.2 | 9.3 ± 0.5 | 1.6 ± 0.9 |
| O=[As]O[As]=O (centres unmarked) [Arsenic (III) oxide] |  |  |  |  |  |  |  |  | 1.5 ± 0.1 | 1.2 ± 0.5 | 5.2 ± 0.1 | 4.2 ± 0.1 | 14.2 ± 2.1 | 1.5 ± 0.2 | 8.2 ± 0.3 | 3.9 ± 1.6 |
| [Bi+3].[Bi+3].[O-2].[O-2].[O-2] [Bismuth (III) oxide] |  |  |  |  |  |  |  |  | 1.2 ± 0.1 | 0.4 ± 0.1 | 1.3 ± 0.2 | 2.6 ± 0.2 | 2.1 ± 0.1 | 33.0 ± 1.6 | 3.6 ± 0.3 | 192.7 ± 18.4 |
| [Cl][Cd][Cl] [Cadmium chloride] |  |  |  |  |  |  |  |  | 3.6 ± 0.4 | 15.0 ± 0.8 | 10.9 ± 0.4 | 7.6 ± 0.4 | 10.3 ± 1.6 | 4.4 ± 0.6 | 11.8 ± 0.5 | 20.5 ± 8.3 |
| [Cl][Cu][Cl] [Copper (II) chloride] |  |  |  |  |  |  |  |  | 1.2 ± 0.1 | 7.2 ± 0.6 | 2.2 ± 0.2 | 67.1 ± 18.1 | 22.5 ± 2.2 | 58.2 ± 3.2 | 13.4 ± 0.0 |  |
| NCC(=O)O [Glycine] | 1.6 ± 0.1 | 1.6 ± 0.6 | 1.9 ± 0.3 | 3.1 ± 1.5 | 1.7 ± 0.2 | 2.5 ± 0.6 | 1.9 ± 0.2 | 4.9 ± 1.9 |  |  |  |  |  |  |  |  |
| [Cl][Au] [Gold (I) chloride] |  |  |  |  |  |  |  |  | 1.2 ± 0.2 | 0.9 ± 0.2 | 1.2 ± 0.1 | 0.9 ± 0.1 | 2.9 ± 0.2 | 2.0 ± 0.0 | 23.3 ± 0.4 | 1.2 ± 0.2 |
| CC(=O)[O-].CC(=O)[O-].[Pb+2] [Lead acetate] |  |  |  |  |  |  |  |  | 1.3 ± 0.3 | 0.4 ± 0.2 | 1.2 ± 0.3 | 1.3 ± 0.1 | 1.5 ± 0.1 | 5.0 ± 0.8 | 4.3 ± 0.8 | 29.4 ± 5.1 |
| CCC[C@@H]1C[C@@H](C(=O)N[C@@H]([C@H]2O[C@H](SC)[C@H](O)[C@@H](O)[C@H]2O)[C@@H](C)O)N(C)C1 [Lincomycin] | 1.2 ± 0.1 | 1.2 ± 1.2 | 1.3 ± 0.1 | 1.2 ± 0.3 | 1.2 ± 0.1 | 2.4 ± 0.9 | 1.4 ± 0.2 | 6.1 ± 0.5 |  |  |  |  |  |  |  |  |
| COc1ccc2[nH]cc(CCNC(C)=O)c2c1 [Melatonin] | 6.5 ± 0.8 | 9.8 ± 2.4 | 6.1 ± 0.4 | 6.9 ± 1.0 | 4.4 ± 0.4 | 1.9 ± 0.9 | 1.1 ± 0.1 |  |  |  |  |  |  |  |  |  |
| CCOc1ccc(NC(C)=O)cc1 [Phenacetin] | 7.2 ± 0.2 | 23.3 ± 3.1 | 7.0 ± 1.1 | 11.1 ± 0.8 | 5.3 ± 0.1 | 7.7 ± 4.7 | 0.7 ± 0.2 | 6.4 ± 2.1 |  |  |  |  |  |  |  |  |
| [K+].[K+].[O]=[Cr](=[O])([O-])[O][Cr](=[O])(=[O])[O-] [Potassium dichromate] |  |  |  |  |  |  |  |  | 1.2 ± 0.4 | 0.5 ± 0.0 | 1.0 ± 0.0 | 0.7 ± 0.1 | 3.3 ± 0.3 | 0.8 ± 0.0 | 3.7 ± 0.4 | 1.2 ± 0.0 |
| COc1ccc(C[C@H](N)C(=O)N[C@H]2[C@@H](O)[C@H](n3cnc4c(N(C)C)ncnc43)O[C@@H]2CO)cc1 [Puromycin] | 1.9 ± 0.2 | 0.8 ± 0.2 | 14.1 ± 1.2 | 255.7 ± 28.2 | 29.0 ± 1.2 | 3,284.1 ± 1,069.3 | 26.6 ± 4.3 | 3,852.3 ± 309.9 |  |  |  |  |  |  |  |  |
| NC(=O)c1ncn([C@@H]2O[C@H](CO)[C@@H](O)[C@H]2O)n1 [Ribavirin] | 1.4 ± 0.1 | 1.1 ± 0.4 | 1.5 ± 0.1 | 0.5 ± 0.1 | 1.2 ± 0.3 | 0.2 ± 0.0 | 1.0 ± 0.1 | 0.2 ± 0.0 |  |  |  |  |  |  |  |  |
| C=CC[C@@H]1/C=C(\C)C[C@H](C)C[C@H](OC)[C@H]2O[C@@](O)(C(=O)C(=O)N3CCCC[C@H]3C(=O)O[C@H](/C(C)=C/[C@@H]3CC[C@@H](O)[C@H](OC)C3)[C@H](C)[C@@H](O)CC1=O)[C@H](C)C[C@@H]2OC [Tacrolimus] | 6.6 ± 0.6 | 7.8 ± 0.4 | 6.1 ± 0.2 | 5.1 ± 0.6 |  |  |  |  |  |  |  |  |  |  |  |  |
| NC[C@H]1O[C@H](O[C@H]2[C@H](O)[C@@H](O[C@H]3O[C@H](CO)[C@@H](O)[C@H](N)[C@H]3O)[C@H](N)C[C@@H]2N)[C@H](N)C[C@@H]1O [Tobramycin] | 1.3 ± 0.1 | 0.5 ± 0.1 | 1.3 ± 0.1 | 0.6 ± 0.1 | 1.4 ± 0.1 | 0.9 ± 0.3 | 2.7 ± 0.4 | 25.5 ± 1.5 |  |  |  |  |  |  |  |  |
